Results published in publication PMC8509669 (2021).

Columns and labels:
Assay in all cases: ThT fluorescence light-up
[1] = test system: FenA4-ThT (DNA, aptamer) ACGACCGCAGGTTGTCTGAGCCGACAGGTTGCATGTCGT; conditions: 10 mM NaCl; 10 mM Tris-HCl pH 7.0, 30 °C; 1 µM aptamer
[2] = test system: FenA5-ThT (DNA, aptamer) ACGACCGCAGGGCGTGAGAGCCGGAACGGTGCATCGTCGT; conditions: 10 mM NaCl; 10 mM Tris-HCl pH 7.0, 30 °C; 1 µM aptamer
[3] = test system: FenA2-ThT (DNA, aptamer) ACGACGGGCCGAGTAGTCTCCACGATTGATCGGAAGTCGT; conditions: 10 mM NaCl; 10 mM Tris-HCl pH 7.0, 30 °C; 1 µM aptamer; peak signal at 1:8 sensor:ThT
[4] = test system: FenA1-ThT (DNA, aptamer) ACGACCACAGGGAGTAAGAGGCCGCCAGATTGTAAGTCGT; conditions: 10 mM NaCl; 10 mM Tris-HCl pH 7.0, 30 °C; 1 µM aptamer
[5] = test system: FenA3-ThT (DNA, aptamer) CCGCAGGTCAGGTTGAGAGGATCCCGATTGCGG; conditions: 10 mM NaCl; 10 mM Tris-HCl pH 7.0, 30 °C; 1 µM aptamer

- binding [1]: weak
- binding [2]: weak
- binding [3]: yes
- binding [4]: weak
- binding [5]: weak
Structure (SMILES): Cc1ccc2c(c1)sc(-c1ccc(N(C)C)cc1)[n+]2C
